Measurements published in PubChem BioAssay (NCI).
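Cells were grown in 96-well plates and exposed to each compound for 48 hours at five concentrations; endpoints were interpolated linearly between bracketing concentrations, or set to the highest concentration if not reached. At the GI50, growth is halved. At the TGI there is no net growth.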

Experiments:
Assay in all cases: DTP human tumour cell line panel, 48 h
COLO 205 colon = system: COLO 205 colon
KM12 colon = system: KM12 colon
A498 renal = system: A498 renal
HCT-15 colon = system: HCT-15 colon
786-0 renal = system: 786-0 renal
IGROV1 ovarian = system: IGROV1 ovarian
UACC-257 melanoma = system: UACC-257 melanoma
SN12C renal = system: SN12C renal
SW-620 colon = system: SW-620 colon
HOP-92 NSCLC = system: HOP-92 NSCLC

## Fc1ccccc1C1CC(C(c2ccccc2)c2ccccc2)=Nc2ccccc2S1 (stereo not given)
COLO 205 colon
  TGI: 27.9 µM
KM12 colon
  TGI: 23.1 µM
A498 renal
  TGI: 20 µM
HCT-15 colon
  TGI: 30.8 µM
786-0 renal
  TGI: 16.2 µM
IGROV1 ovarian
  TGI: 28.8 µM
UACC-257 melanoma
  TGI: 30.6 µM
SN12C renal
  TGI: 26 µM
SW-620 colon
  TGI: 31 µM

## FC(F)(F)c1ccc(-c2cnc(Br)nc2NC2CCCCCC2)cc1
COLO 205 colon
  GI50: 83.3 µM
  TGI: > 100 µM
KM12 colon
  GI50: 52 µM
  TGI: > 100 µM
A498 renal
  GI50: 40 µM
  TGI: > 100 µM
HCT-15 colon
  GI50: 55.2 µM
  TGI: > 100 µM
786-0 renal
  GI50: 91.2 µM
  TGI: > 100 µM
IGROV1 ovarian
  GI50: > 100 µM
  TGI: > 100 µM
UACC-257 melanoma
  GI50: 63.4 µM
  TGI: > 100 µM
SN12C renal
  GI50: > 100 µM
  TGI: > 100 µM
SW-620 colon
  GI50: 96.7 µM
  TGI: > 100 µM

## COc1ccc(O)c2c1C(=O)CCCC2=O
COLO 205 colon
  TGI: > 100 µM
KM12 colon
  TGI: > 100 µM
A498 renal
  TGI: > 100 µM
HCT-15 colon
  TGI: > 100 µM
786-0 renal
  TGI: > 100 µM
IGROV1 ovarian
  TGI: > 100 µM
UACC-257 melanoma
  TGI: > 100 µM
SN12C renal
  TGI: > 100 µM
SW-620 colon
  TGI: > 100 µM

## COc1ccc(-c2ccc(-c3ccc(C(=N)N)cn3)s2)cc1Cl
COLO 205 colon
  GI50: 1.41 µM
  TGI: 3.15 µM
KM12 colon
  GI50: 1.65 µM
  TGI: 3.04 µM
HCT-15 colon
  GI50: 1.62 µM
  TGI: 3.01 µM
HOP-92 NSCLC
  GI50: 1.68 µM
  TGI: 3.66 µM
786-0 renal
  GI50: 1.98 µM
  TGI: 4.03 µM
IGROV1 ovarian
  GI50: 1.57 µM
  TGI: 3.28 µM
SN12C renal
  GI50: 1.69 µM
  TGI: 3.39 µM
SW-620 colon
  GI50: 1.4 µM
  TGI: 2.73 µM

## CN(O)C(=O)Cc1ccccc1
COLO 205 colon
  TGI: > 100 µM
KM12 colon
  TGI: > 100 µM
HOP-92 NSCLC
  TGI: > 100 µM
786-0 renal
  TGI: > 100 µM
IGROV1 ovarian
  TGI: > 100 µM
UACC-257 melanoma
  TGI: > 100 µM
SN12C renal
  TGI: > 100 µM
SW-620 colon
  TGI: > 100 µM

## CCNCC(O)c1ccc(N)c([N+](=O)[O-])c1 (stereo not given)
COLO 205 colon
  TGI: > 100 µM
A498 renal
  TGI: > 100 µM
HCT-15 colon
  TGI: > 100 µM
786-0 renal
  TGI: > 100 µM
IGROV1 ovarian
  TGI: > 100 µM
UACC-257 melanoma
  TGI: > 100 µM
SN12C renal
  TGI: > 100 µM
SW-620 colon
  TGI: > 100 µM

## Fc1ccc(-c2ncn(C3CCNCC3)c2-c2ccnc(Oc3cccc(F)c3)n2)cc1
COLO 205 colon
  GI50: 5.09 µM
  TGI: 9.67 µM
KM12 colon
  GI50: 13.6 µM
  TGI: > 25 µM
A498 renal
  GI50: > 25 µM
  TGI: > 25 µM
HCT-15 colon
  GI50: > 18 µM
  TGI: > 25 µM
786-0 renal
  GI50: > 23.5 µM
  TGI: > 25 µM
IGROV1 ovarian
  GI50: 12.4 µM
  TGI: > 25 µM
SN12C renal
  GI50: 19.1 µM
  TGI: > 25 µM
SW-620 colon
  GI50: 5.54 µM
  TGI: > 14.7 µM

## O=c1cccccc1NCCCCNc1cccccc1=O
COLO 205 colon
  TGI: > 100 µM
KM12 colon
  TGI: > 100 µM
A498 renal
  TGI: > 100 µM
HCT-15 colon
  TGI: > 100 µM
786-0 renal
  TGI: > 100 µM
IGROV1 ovarian
  TGI: > 100 µM
UACC-257 melanoma
  TGI: > 100 µM
SN12C renal
  TGI: > 100 µM
SW-620 colon
  TGI: > 100 µM

## O=Nc1c(O)ccc2ccccc12
COLO 205 colon
  GI50: 7.81 µM
  TGI: 21.8 µM
KM12 colon
  GI50: 5.26 µM
  TGI: 18.4 µM
A498 renal
  GI50: 16.7 µM
  TGI: 31.4 µM
HCT-15 colon
  GI50: 3.85 µM
  TGI: 15.9 µM
786-0 renal
  GI50: 10.2 µM
  TGI: 22 µM
IGROV1 ovarian
  GI50: 2.15 µM
  TGI: 5.78 µM
UACC-257 melanoma
  GI50: 1.64 µM
  TGI: 3.2 µM
SN12C renal
  GI50: 1.75 µM
  TGI: 3.4 µM
SW-620 colon
  GI50: 2.46 µM
  TGI: 8.04 µM

## Cc1cc(C)c(C(=O)OC(c2ccccc2)C(c2ccccc2)N2CCOCC2)c(C)c1 (stereo not given)
COLO 205 colon
  TGI: > 100 µM
KM12 colon
  TGI: > 100 µM
A498 renal
  TGI: > 100 µM
HCT-15 colon
  TGI: > 100 µM
786-0 renal
  TGI: > 100 µM
IGROV1 ovarian
  TGI: > 100 µM
UACC-257 melanoma
  TGI: > 100 µM
SN12C renal
  TGI: > 100 µM
SW-620 colon
  TGI: > 100 µM

## CC[C@@H]1OC2(C)CC(S(=O)(=O)c3ccccc3)CC1O2 (stereo not given in full)
COLO 205 colon
  TGI: > 100 µM
KM12 colon
  TGI: > 100 µM
HCT-15 colon
  TGI: > 100 µM
HOP-92 NSCLC
  TGI: > 100 µM
786-0 renal
  TGI: > 100 µM
IGROV1 ovarian
  TGI: > 100 µM
UACC-257 melanoma
  TGI: > 100 µM
SN12C renal
  TGI: > 100 µM
SW-620 colon
  TGI: > 100 µM

## CC(C)(C)CC(C)(C)c1ccc(OCCOCCSC(=N)N)cc1
COLO 205 colon
  GI50: 1.65 µM
  TGI: 3.12 µM
KM12 colon
  GI50: 1.78 µM
  TGI: 3.33 µM
HCT-15 colon
  GI50: 1.8 µM
  TGI: 3.85 µM
HOP-92 NSCLC
  GI50: 1.89 µM
  TGI: 7.92 µM
786-0 renal
  GI50: 1.71 µM
  TGI: 3.46 µM
IGROV1 ovarian
  GI50: 2.3 µM
  TGI: 4.81 µM
UACC-257 melanoma
  GI50: 1.69 µM
  TGI: 3.18 µM
SN12C renal
  GI50: 1.81 µM
  TGI: 3.62 µM
SW-620 colon
  GI50: 1.65 µM
  TGI: 3.34 µM

## CCOC(=O)C(C[Si](C)(C)C)P(=O)(OCC)OCC (stereo not given)
COLO 205 colon
  TGI: > 100 µM
KM12 colon
  TGI: > 100 µM
HCT-15 colon
  TGI: > 100 µM
HOP-92 NSCLC
  TGI: > 100 µM
786-0 renal
  TGI: > 100 µM
IGROV1 ovarian
  TGI: > 100 µM
UACC-257 melanoma
  TGI: > 100 µM
SN12C renal
  TGI: > 100 µM
SW-620 colon
  TGI: > 100 µM

## O=Cc1coc2ccccc2c1=O
COLO 205 colon
  TGI: 30.4 µM
KM12 colon
  TGI: 69.9 µM
A498 renal
  TGI: > 100 µM
HCT-15 colon
  TGI: 37.4 µM
786-0 renal
  TGI: 37.9 µM
IGROV1 ovarian
  TGI: 41.4 µM
UACC-257 melanoma
  TGI: 46.7 µM
SN12C renal
  TGI: 58.6 µM
SW-620 colon
  TGI: 41.5 µM

## O=C1C(c2ccccc2)=C(c2ccccc2)C(c2ccc(CCCCCCc3ccc(C4=C(c5ccccc5)C(=O)C(c5ccccc5)=C4c4ccccc4)cc3)cc2)=C1c1ccccc1
COLO 205 colon
  TGI: > 100 µM
KM12 colon
  TGI: > 100 µM
HCT-15 colon
  TGI: > 100 µM
HOP-92 NSCLC
  TGI: > 100 µM
786-0 renal
  TGI: > 100 µM
IGROV1 ovarian
  TGI: > 100 µM
UACC-257 melanoma
  TGI: > 100 µM
SN12C renal
  TGI: > 100 µM
SW-620 colon
  TGI: > 100 µM

## Cc1ccc(NC(=O)C(=O)Cc2nc3ccccc3o2)c(C)c1
COLO 205 colon
  TGI: > 100 µM
KM12 colon
  TGI: > 100 µM
HCT-15 colon
  TGI: > 100 µM
HOP-92 NSCLC
  TGI: > 100 µM
786-0 renal
  TGI: > 100 µM
IGROV1 ovarian
  TGI: > 100 µM
UACC-257 melanoma
  TGI: > 100 µM
SN12C renal
  TGI: > 100 µM
SW-620 colon
  TGI: > 100 µM

## CCCCCCCCCC(=O)CC(=O)c1c(O)cccc1O
COLO 205 colon
  TGI: 35.8 µM
KM12 colon
  TGI: > 100 µM
786-0 renal
  TGI: 35.3 µM
IGROV1 ovarian
  TGI: > 100 µM
UACC-257 melanoma
  TGI: > 100 µM
SN12C renal
  TGI: 53.4 µM
SW-620 colon
  TGI: 83.2 µM
